Test results reported in paper PMC8208785, “Therapeutic efficacy of novel memantine nitrate MN‐08 in animal models of Alzheimer’s disease” (Aging Cell, 2021).
Like-named read-outs stand apart in the source and are kept apart here.

Legend:
APP/PS1 mice = experiment: Western blotting and NeuN staining in hippocampi of APP/PS1 mice (Tau, synapse and apoptosis proteins); assay type: in vivo; conditions: MN‐08 6 mg/kg
Procedure: APP/PS1 transgenic mice were purchased from Jackson Laboratory and reproduced in the Shenzhen Center for Disease Control and Prevention (Shenzhen, China). Two‐month‐old APP/PS1 mice were divided into four groups: (1) APP/PS1 + Vehicle group; (2) APP/PS1 + MN‐08 (6 mg/kg) group; (3) APP/PS1 + Memantine (Mem, 5 mg/kg) group; (4) APP/PS1 + Donepezil (Done, 1.3 mg/kg, once daily) group; (5) Two‐month‐old C57BL/6J mice as a control group. The APP/PS1 mice were administered drugs twice a day (Done, once daily) by gastric gavage from ages 2 to 8 months for 6 months successively. Control and vehicle groups received equal volumes of saline.
Immunohistochemistry and immunofluorescence staining were carried out as previously described (Zhang et al., 2017). Coronal brain sections were incubated with […] sodium citrate (pH 6.0) and heated for 15 min. After cooling to room temperature, the sections were immersed in 3 % H2O2 for 10 min followed by blocking solution (10 % fetal bovine serum, 1 % bovine serum albumin and 0.1 % Triton X-100) for 1 h. Sections were then incubated with the following appropriate primary antibodies overnight at 4°C: anti-Aβ1-42 antibody (#ab10148, 1:1000, Abcam), anti-Aβ1-16 antibody (#803014, 1:1000, Abcam) and anti-NeuN antibody (#ab177487, 1:400, Abcam). After rinsing 3 times, the sections of immunohistochemistry staining were incubated with biotin-conjugated universal secondary antibody (Gene Tech, Shanghai, China). For immunofluorescence staining, the sections were incubated with appropriate secondary antibodies for 2 h at room temperature. Image J software was used to analyze the fluorescence intensity and cell counting from six slices at similar coronal positions of each animal; this was performed by a viewer blinded to the experimental group.
Western blotting analysis was performed as previously described with minor modifications (Huang, Li, & Nan, 2017). Proteins were extracted from hippocampal tissue and their concentrations determined by the BCA protein assay kit (Fdbio science, Hangzhou, China). The protein (20 μg) was separated on a 12% SDS-PAGE gel and then transferred to PVDF membranes. The membranes were blocked using 5 % nonfat dry milk for 2 h. The protein blots were incubated with the corresponding primary antibodies against p-Akt (#4060, 1:1000, Cell Signaling Technology), Akt (#4685, 1:1000, Cell Signaling Technology), BACE1 (#5606, 1:1000, Cell Signaling Technology), PS1 (#5643, 1:1000, Cell Signaling Technology), p-GSK3β (#5558, 1:1000, Cell Signaling Technology), GSK3β (#12456, 1:1000, Cell Signaling Technology), Bcl-2 (#3498, 1:1000, Cell Signaling Technology), Bax (#5023, 1:1000, Cell Signaling Technology), Cleaved caspase-3 (#9661, 1:1000, Cell Signaling Technology), Caspase-3 (#9662, 1:1000, Cell Signaling Technology), ADAM10 (#14194, 1:1000, Cell Signaling Technology), APP (#ab241592, 1:1000, Abcam), sAPPα (#ab126723, 1:1000, Abcam), NEP (#ab216341, 1:1000, Abcam), Synapsin I (#ab64581, 1:1000, Abcam), Synapsin II (#ab76494, 1:1000, Abcam), NR2A (#ab124913, 1:2000, Abcam), PSD95 (#ab18258, 1:1000, Abcam), Synaptophysin (#ab32127, 1:1000, Abcam), IDE (#ab133561, 1:1000, Abcam), Drebin (#ab178408, 1:1000, Abcam) and Tau-5 (#ab80579, 1:2000, Abcam) overnight at 4°C. After washing 3 times, the membranes were incubated with the respective HRP-conjugated secondary antibody. […] Quantitative analysis of protein bands was conducted by the Carestream system (Carestream Health, Inc, USA).

[1] = brain exposure of MN-08 in rats; assay type: in vivo, SD rats; conditions: for concentration at 0.5 h / concentration at 1 h / concentration at 24 h: both sexes, Sprague-Dawley, rat, oral
Procedure: Bio-distribution studies were carried out in healthy adult rats (3 males and 3 females). All rats were administered MN-08 at a single dose of 12 mg/kg by gastric gavage. Brain and plasma were collected at 0.5, 1 and 24 h post dosing. Tissue samples were homogenized and then centrifuged at 12000 rpm for 10 min. The supernatants were injected into the LC-MS/MS system for analysis of MN-08 concentration according to the method previously described (Tian et al., 2016).

[2] = pharmacokinetic analysis of MN-08 in rats; assay type: in vivo; conditions: both sexes, rat, plasma, po; for Cmax: read-out: Cmax, peak concentration; for half-life: read-out: T1/2, mean terminal half-life (converted); for Tmax: read-out: Tmax, mean time to peak
Procedure: Healthy adult rats were cannulated under anesthesia one day before dosing, then randomly categorized into 3 groups (3 males and 3 females for each group): (1) MN-08 (3 mg/kg) group; (2) MN-08 (12 mg/kg) group; (3) MN-08 (24 mg/kg) group. Following single administration of MN-08 by gastric gavage, plasma samples (approximately 150 μL) were collected at different time points (Pre-dose and 0.25, 0.5, 1, 2, 4, 8, 12, 24 h after dose). The blood samples were placed in heparinized tubes and centrifuged at 3000 rpm for 10 min. The supernatant plasma was stored at -80°C until analysis. The concentration of MN-08 in blood samples was analyzed by the LC-MS/MS method as previously described (Tian et al., 2016).

[3] = single intragastric dose 3 mg/kg
[4] = single intragastric dose 12 mg/kg
[5] = single intragastric dose 24 mg/kg

Compound: CCC12CC3CC(N)(C1)CC(CO[N+](=O)[O-])(C3)C2 (stereo not shown) [MN‐08]
- Tau hyperphosphorylation in the hippocampi (APP/PS1 mice; prevention study): consistently suppressed
- expression of synapse‐related proteins (SYP, PSD95, SYN I, SYN II, drebrin) (APP/PS1 mice; prevention study): reversal of the depressed expression
- neuronal loss in the hippocampus (NeuN) (APP/PS1 mice; prevention study): prevented
- expression ratio of Bcl‐2/Bax (APP/PS1 mice; hippocampi): upregulating
- expression ratio of cleaved Caspase‐3 to Caspase‐3 (APP/PS1 mice; hippocampi): downregulating
- concentration in brain tissue relative to plasma [1]: much higher than that in the plasma
- blood‐brain barrier penetration ([1]; 12 mg/kg gastric gavage): readily penetrates the blood‐brain barrier
- mean concentration in brain ([1]; 12 mg/kg gastric gavage, 0.5 h, 12 mg/kg): 5793 ± 1033 ng/g
- mean concentration in brain ([1]; 12 mg/kg gastric gavage, 1 h, 12 mg/kg): 10952 ± 3236 ng/g
- mean concentration in brain ([1]; 12 mg/kg gastric gavage, 24 h, 12 mg/kg): 1661 ± 183.4 ng/g
- concentration at 0.5 h ([1]; brain, 12 mg/kg gastric gavage, 0.5 h, read-out: mean concentration in brain): 5790 ng/g
- concentration at 1 h ([1]; brain, 12 mg/kg gastric gavage, 1 h, read-out: mean concentration in brain): 11000 ng/g
- concentration at 24 h ([1]; brain, 12 mg/kg gastric gavage, 24 h, read-out: mean concentration in brain): 1660 ng/g
- concentration at 0.5 h ([1]; 12 mg/kg, 0.5 h, assuming 1 g brain tissue is 1 ml, read-out: concentration in the brain): ~19.9 µM
- concentration at 1 h ([1]; 12 mg/kg, 1 h, assuming 1 g brain tissue is 1 ml, read-out: concentration in the brain): ~37.7 µM
- concentration at 24 h ([1]; 12 mg/kg, 24 h, assuming 1 g brain tissue is 1 ml, read-out: concentration in the brain): ~5.71 µM
- concentration at 0.5 h ([1]; plasma, 12 mg/kg gastric gavage, 0.5 h, read-out: mean concentration in plasma): 781 ± 99 ng/mL
- concentration at 1 h ([1]; plasma, 12 mg/kg gastric gavage, 1 h, read-out: mean concentration in plasma): 726 ± 141 ng/mL
- concentration at 24 h ([1]; plasma, 12 mg/kg gastric gavage, 24 h, read-out: mean concentration in plasma): 73.4 ± 23.8 ng/mL
- Cmax [2, 3]: 97.5 ng/mL
- half-life [2, 3]: 5.26 h
- Tmax [2, 3]: 1.08 h
- Cmax [2, 4]: 399 ng/mL
- half-life [2, 4]: 6.81 h
- Tmax [2, 4]: 1.83 h
- Cmax [2, 5]: 674 ng/mL
- half-life [2, 5]: 6.82 h
- Tmax [2, 5]: 4 h
